The subject of assay [1] is rat unilateral ureteral obstruction (UUO) model. The assay can be described thus: Anti-fibrotic activity, rat unilateral ureteral obstruction (UUO) model (Test Example 5). It is filed as in vivo, SD rats. The following applies: UUO treatment, left kidney, corrected by total protein of kidney extract, average of 6 rats ± standard deviation. The method, then: The anti-fibrotic activity of the compounds described in the present specification was evaluated using a rat unilateral ureteral obstruction (UUO) model which is a renal fibrosis model. Compound 50 and compound 159 were used as the test compound. Six week-old male SD rats (available from Charles River Japan, Inc.) were purchased and were pre-raised before use in experiments. Regarding diets and drinking water, pellets CE-2 (available from CLEA JAPAN INC.) and sterile tap water were freely fed. The rats underwent laparotomy under pentobarbital anesthesia, and the left renal urinary duct was ligated. Thereafter, the […] underwent suturing operation and were divided into a vehicle administration group (n = 6) and a test compound administration group (n = 6) using the weight as an index. The test compound was mixed in amounts of 0.03% and 0.1% in powder diet CE-2 (available from CLEA JAPAN INC.), and the mixtures were fed as a diet to each rat group from the first day of the ureteral obstruction.
After administration of the mixed feed for 7 days, the left kidney was removed, and the hydroxyproline content as an index of organ fibrosis was measured by the following method. Specifically, renal pieces were first placed in 6 N HCl, were homogenized, and were then heated on a heat block at 130°C for 3 hr to hydrolyze protein. Thereafter, the suspension of renal pieces was neutralized by the addition of an appropriate amount of 4 N NaOH. The neutralized suspension was centrifuged (1000 rpm, 5 min, room temperature) to obtain the supernatant as a kidney extract. A chloramine T liquid, a perchloric acid solution (a solution prepared by adding distilled water to 31.5 ml of 60% perchloric acid to adjust the total volume to 100 ml), and a p-dimethylaminobenzaldehyde solution (a solution prepared by adding […] to 20 g of p-dimethylaminobenzaldehyde to adjust the total volume to 100 ml) were added to the kidney extract, and a reaction was allowed to proceed at 60°C for 20 min. The absorbance at 557 nm was then measured. The content of hydroxyproline was determined from the measured data based on a calibration curve for hydroxyproline prepared using control. Further, the content of hydroxyproline thus determined was corrected according to the total protein content of the kidney extract.
The values in the tables are average of data on 6 rats for each group ± standard deviation.

The subject of assay [2] is TGFβ signal. In words: TGFβ signal inhibitory activity, (SBE)4-Luc reporter in A549 cells (Test Examples 1A and 1B). Particulars: Homo sapiens, A549, TGFβ-1 2 ng/ml, 4 hr, Table 1A, read-out: TGFβ inhibition rate, %; for inhibition at 3 µM: test compound 3 µM; for inhibition at 10 µM: test compound 10 µM. It is filed as cell-based, human. Summed up: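 Compounds at 3 µM and 10 µM (some 1 µM) were added with 2 ng/ml TGFβ-1 to A549 cells stably expressing an SBE-driven luciferase, then cultured 4 hr. Chemiluminescent luciferase signal gave % inhibition versus TGFβ-alone and no-TGFβ controls.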

The test system of assay [3] is BMP4 signal. In words: BMP signal inhibitory activity, p(GCCG)12-Luc reporter in HepG2 cells (Test Example 7). It counts as cell-based, human. Particulars: as compared with Example 274 described in WO 03/00660. The source says: The inhibitory activity of the compounds according to the present invention against BMP signals was studied using a cell line through which TGFb and BMP signals can be simultaneously observed. Specifically, the cell lines capable of detecting the two signal was generated by transfecting reporter plasmids for detection of TGFb and BMP signals into a human hepatocarcinoma cell line HepG2(available from ATCC) and was used as evaluation cells. For detection of TGF-beta signal, the plasmid having four tandem binding sequences of Smad2/3, TGF-beta signal transducers, to the upstream of a luciferases gene were used as a reporter plasmid (p(SBE)4-Luc/hygro). For detection of BMP signal, the plasmid having twelve tandem binding sequences of Smadl/5/8, BMP signal transducers, to the upstream of a luciferases gene were used as a reporter plasmid (p(GCCG)12-Luc/neo), according to the method described in Mol Biol Cell. 2000 11(2): 555-65. The test compound and TGFβ-1 (2 ng/ml) or BMP4 (20 ng/ml) were added to the cells, and the mixture was cultured for 4 hr. The compounds according to the present invention synthesized in the working example were used as the test compound. […] After the culture, the luciferase activity of the cells was measured by chemiluminescence (Steady Glo (trademark) luciferase assay system, available from Promega). Likewise, the luciferase activity was measured as control for the culture of cells with only TGFβ or BMP4 added thereto and the culture of cells with the addition of none of TGFβ, BMP4 and the test compound. The inhibitory activity IC50 of the compounds against TGFβ and BMP4 was calculated based on the results of measurement, and the kinase selectivity for BMP4 was determined by the following method. Kinase selectivity for BMP4 (times) = Inhibitory activity against BMP4 signal (IC50)/Inhibitory activity against TGFβ signal (IC50)

The test system of assay [4] is A549 cells. In words: Cell growth inhibitory activity using A549 cells (Test Example 6). It counts as cell-based, Human. The following applies: for inhibition at 30 µM: Homo sapiens, A549, compound 30 µM, 5% serum, 40 hr, counting kit-8, read-out: Cell growth inhibition rate (%); for inhibitory activity against cell growth of A549 cells: as compared with Example 274 described in WO 03/00660. The method, then:
Human lung cancer epithelial cells (A549) (available from ATCC) were suspended to a concentration of 3 × 10^4/ml in a DMEM/F12 medium containing 10%FCS, and the suspension was inoculated in 100 µl portions in wells of a 96-well plate. On the following day, a stock solution of the test compound which had been adjusted to 10 mM with DMSO was adjusted with a serum-free DMEM/F12 medium to a dose (60 µM) which was twice the evaluation concentration. After removing the medium inoculated in the 96 wells on the previous day, the solution was added in 50 µl portions to the plate. Next, a DMEM/F12 medium containing 10% serum was added in 50 µl portions to the wells, followed by culturing at 37°C for 40 hr. The final concentration of the serum and the concentration of the evaluation compound were 5% and 30 µM, respectively. The compounds according to the present invention synthesized in the working example were used as the test compound. […]
After 40 hr, the culture was removed, and 100 µl of a solution prepared by diluting counting kit-8 (purchased from Dojindo) with a serum-free F12 medium by 10 times was added, followed by culturing at 37°C for 20 to 30 min. After the confirmation of suitable color development, the absorbance at 450 nm was measured with ARVO (purchased from Wallach Bethold Japan). The cell growth inhibition in the test compound added wells were determined by presuming the absorbance value in the test compound-free wells to be 0% and the absorbance value in the cell-free wells to be 100%.

Results on four compounds are retold here after patent EP1724268A1, “COMPOUND HAVING TGF-BETA INHIBITORY ACTIVITY AND PHARMACEUTICAL COMPOSITION CONTAINING SAME” (KIRIN BEER KABUSHIKI KAISHA, priority 2004, dated 2005).

In general, inhibition refers to the change of the read-out against control, counted positive when it falls. With `CCc1ccc(Oc2ccnc3cc(OC)c(OC)cc23)c(-c2ncccn2)n1` [Compound 50, 4-(6-Ethyl-2-pyrimidin-2-yl-pyridin-3-yloxy)-6,7-dimethoxy-quinoline], the “Hydroxyproline content” value in assay [1] (0.03% mixed feed for 7 days, Table 5a) stood at 7.33 ± 0.67 mg/g. Moreover, in assay [1] (0.1% mixed feed for 7 days, Table 5a), the “Hydroxyproline content” value came to 4.67 ± 0.22 mg/g. In addition, in assay [2], the inhibition at 3 µM was 98% and the inhibition at 10 µM came out at 100%.

Turning to `CCc1ccc(Oc2ccnc3cc(OC)c(F)cc23)c(-c2ncccn2)n1` [Compound 159, 4-(6-Ethyl-2-pyrimidin-2-yl-pyridin-3-yloxy)-6-fluoro-7-methoxy-quinoline], the “Hydroxyproline content” value in assay [1] (0.03% mixed feed for 7 days, Table 5b) came to 22.47 ± 0.82 mg/g. Further, the “Hydroxyproline content” value in assay [1] (0.1% mixed feed for 7 days, Table 5b) is 17.28 ± 0.87 mg/g. In addition, in assay [2], the inhibition at 3 µM came out at 99% and the inhibition at 10 µM turned out to be 100%.

On to `Cc1ccc(Oc2ccnc3ccc(OCCCO)cc23)c(-c2ncccn2)n1` [Compound 222, 3-[4-(6-Methyl-2-pyrimidin-2-yl-pyridin-3-yloxy)-quinolin-6-yloxy]-propan-1-ol], for which the “inhibitory activity against BMP4 signals” value in assay [3] is “reduced inhibitory activity”. Also, in assay [4], the inhibition at 30 µM was 6% and the “inhibitory activity against cell growth of A549 cells” value is “reduced inhibitory activity”. In assay [2], the inhibition at 3 µM is 91% and the inhibition at 10 µM came to 100%.

For the compound `CCc1ccc(Oc2ccnc3cc(F)c(OCCO)cc23)c(-c2ncccn2)n1` [Compound 225, 2-[4-(6-Ethyl-2-pyrimidin-2-yl-pyridin-3-yloxy)-7-fluoro-quinolin-6-yloxy]-ethanol], the “inhibitory activity against BMP4 signals” value in assay [3] is recorded as “reduced inhibitory activity”. In assay [4], the inhibition at 30 µM came to 8% and the “inhibitory activity against cell growth of A549 cells” value is on record as “reduced inhibitory activity”. Besides, in assay [2], the inhibition at 3 µM was 89% and the inhibition at 10 µM was 99%.
